Literature values in patent US7972386B2, “Bleaching of substrates” (Conopco, Inc., priority 2005, dated 2011).

Conditions: at 20° C.

Structure (SMILES): CN1CCN(C)CCN(C)CC1.CN1CCN(C)CCN(C)CC1.F[P-](F)(F)(F)(F)F.F[P-](F)(F)(F)(F)F.O.[Mn+4].[Mn+4].[O-2].[O-2].[O-2] [[Mn2O3(Me3-TACN)2](PF6)2•H2O, [Mn2O3(Me3-TACN)2] (PF6)2.H2O]
- water solubility: 10.8 g per litre
